For test [1], the system named is human breast cancer cells MCF-7. Briefly: Cell proliferation assay (MTT assay), MCF-7 cells. The test is classed as cell-based. The method, then:
(§1) Fetal bovine serum (FBS) and cell culture medium were prepared (Hyclone), and dimethyl sulfoxide (DMSO) and 3-(4,5-dimetyl-thiazol-2yl)-2,5-diphenyltetrazolium bromide (MTT, Amresco LLC, USC) were prepared.
(§2) As human cancer cell lines, human breast cancer cells MCF-7 and SK-BR-3 were obtained from the Shanghai Cell Bank of Chinese Academy of Sciences. The MCF-7 cells were incubated in Minimum Essential Media (MEM) supplemented with 10% FBS, 100 U/ml penicillin, and 100 μg/ml streptomycin and the SK-BR-3 cells were incubated in Dulbecco's modified Eagle's medium (DMEM) supplemented with 10% FBS, 100 U/ml penicillin, and 100 μg/ml streptomycin in a humidified incubator with 5% CO2 and 95% air. The media were exchanged every three days.
(§3) The effects of Example 1 and Comparative Examples 1 to 3 on cell proliferation were assessed using MTT assay. MTT assay is based on the ability of viable cells against MTT to produce insoluble dark blue formazan products. After the cells were suspended in the medium by trypsin treatment and collected, the cells were dispensed at a density of 4×10^3 cells/well in a 96-well culture dish (Costar, Cambridge, Mass., USA). […] All the crystals were completely dissolved by standing at room temperature for 15 minutes, and the absorbance was measured using a micro-plate reader at a wavelength of 570 nm (A570 nm).
(§4) The absorbance value of the control group treated without the sample was calculated as 100, and the absorbance value of the treatment group treated with the sample, compared with that of the control group, was calibrated, and the percentage of inhibition of cell proliferation was calculated according to the following equation. Percentage (%) of inhibition of cell proliferation=((mean absorbance of control group cells−mean absorbance of treatment group cells)/mean absorbance of control group cells)×100
(§5) All data were expressed as mean±standard error of the mean (mean±SEM). […]
In general terms: Formazan colour is commonly taken as a measure of viable cells.

Test [2] has as its system p21. The test can be described thus: RT-PCR mRNA expression of p21 in MCF-7 cells. The class given is cell-based, human. Particulars: 0-15 μM, 24 hours, with increase in concentration. The method, then:
(§6) Fetal bovine serum (FBS) and cell culture medium were prepared (Hyclone). RT-PCR Kit and Trizol were obtained from Takara Biotechnology CO., LTD., and Annexin V-FITC was obtained from Shanghai Biyuntian Biological Technology Co., LTD. Primers were designed and synthesized by Beijing Aodingkangsheng Biological Technology Co., LTD.
(§7) Human breast cancer cells MCF-7, as a human cancer cell line, were obtained from the Shanghai Cell Bank of Chinese Academy of Sciences. MCF-7 cells were incubated in Minimum Essential media (MEM) supplemented with 10% FBS, 100 U/ml penicillin, and 100 μg/m streptomycin in a humidified incubator with 5% CO2 and 95% air. The media were exchanged every three days.
(§8) In order to investigate the effect of Example 1 on the induction of cell apoptosis, mRNA expression levels of caspase-3, p21, cyclin E1, and cyclin A2, which are genes involved in cell cycle and apoptosis, were examined by RT-PCR. The cells were dispensed at 1×10^5 cells/well in a 6-well culture dish, and incubated for 24 hours. After 24 hours, the cells contained in the MEM containing 10% FBS were treated with Example 1 at 0, 1, 3, 6, 9, 12 or 15 μM, and incubated for 24 hours. After 24 hours, the cells were collected, and then RNA was extracted using Trizol reagent. […]

The subject of test [3] is metastatic breast cancer. The test can be described thus: Clinical test in a patient with metastatic breast cancer (CT images of the lungs). The class given is in vivo, human. Particulars: oral 5 mg three times a day (15 mg/day), after 8, 13, 17 and 22 months of administration. On the procedure: The following clinical test was conducted using the composition of Example 1.
The patient received hospital treatments and folk remedies since breast cancer was found in 2006, but the breast cancer was metastasized to the lungs, pleura, bones, and liver. In May 2014, pleural effusion and peritoneal fluid collection were found, and thus the pleural effusion was extracted several times. However, due to a severe difficulty in breathing caused by malignant pleural effusion, the patient breathed through an oxygen respiratory system in an emergency room and hospice medical ward. However, the patient began to develop pallor due to a lack of oxygen, and the patient, having about one week left to live, was orally administered with 5 mg of Example 1 three times a day (15 mg/day).
CT images of the patient before the administration of Example 1 and after 8, 13, 17 and 22 months of administration of Example 1 are shown in FIG. 6. Before the administration of Example 1, the airway was closed due to metastasis to the right lung and left lung, but after 8, 13, 17, and 22 months of administration, the sizes of the cancers in both of the lungs were decreased as the duration of administration increased.

In test [4] the test system is cyclin E1. Briefly: RT-PCR mRNA expression of cyclin E1 in MCF-7 cells. Particulars: 0-15 μM, 24 hours, with increase in concentration. The class given is cell-based, human. The method, then:
as §6, §7, §8

Test [5] deals with cyclin A2. Briefly: RT-PCR mRNA expression of cyclin A2 in MCF-7 cells. The class given is cell-based, human. The note with it: 0-15 μM, 24 hours, with increase in concentration. On the procedure:
as §6, §7, §8

In test [6] the test system is caspase-3. The test can be described thus: RT-PCR mRNA expression of caspase-3 in MCF-7 cells. The class given is cell-based, human. The note with it: 0-15 μM, 24 hours, with increase in concentration. On the procedure: as §6, §7, §8
Test [7] concerns human breast cancer cells MCF-7. Briefly: Induction of cell apoptosis by flow cytometry (Annexin V-FITC / PI). The class given is cell-based. The note with it: MCF-7 cells, 0, 1, 3, 6, 9, 12 or 15 μM, 24 hours; with increase in treatment concentration. The method, then:
as §6, §7
The effect of Example 1 on the induction of cell apoptosis was assessed by flow cytometry. The cells were dispensed at 1×10^5 cells/well in a 6-well culture dish, and incubated for 24 hours. After 24 hours, the cells contained in the MEM containing 10% FBS were treated with Example 1 at 0, 1, 3, 6, 9, 12 or 15 μM, and incubated for 24 hours. After 24 hours, the cells were treated using Annexin V-FITC kit to check cell apoptosis, and also treated with propidium iodide (PI) for distinguishment from natural cell death. […] The cells treated with the Annexin V-FITC kit were analyzed for the degree of cell apoptosis by using the BD FACS calibur flow cytometry system. […]

Test [8] deals with human breast cancer cells SK-BR-3. The test can be described thus: Cell proliferation assay (MTT assay), SK-BR-3 cells. The class given is cell-based. The method, then: as §1, §2, §3, §4, §5
Test [9] relates to human breast cancer cells, MDA-MB-231. Briefly: Breast cancer metastasis inhibitory effect in nude mice transplanted with MDA-MB-231. The class given is in vivo, babl/c-nu male nude mice. The note with it: MDA-MB-231 subcutaneous, oral 4.5 mg/kg for 7 days; for percentage of inhibition of cancer cell metastasis: cancer cells spread to the lungs counted; for spreading of the breast cancer cells to the lungs: versus untreated control. The method, then:
The nude mice were allowed free access to food and water, and were bred in a 12-hr light/12-hr dark cycle for 7 days.
The mice were transplanted with human breast cancer cells, MDA-MB-231, through subcutaneous injection, and bred for 7 days. After 7 days, the mice were randomly divided, and then respective mice were orally administered with the compositions of Example 1 and Comparative Example 1 at 4.5 mg/kg for 7 days. Here, the mice treated with nothing after the transplantation of breast cancer cells were used as a control group. After 7 days of administration of the compositions, lung tissues were taken from the mice, and then cancer cells spread to the lungs were counted to compare the degree of inhibition of breast cancer metastasis.

The mark [10] stands for this setting: compared with Comparative Example 2 or 3 (Example 1 and Comparative Example 1 mixed at 4:1 or 1:1).

On to tetraarsenic hexoxide [Example 1], for which the “percentage of inhibition of MCF-7 cell proliferation” value is “higher” in [1] (setting [10]); “higher” in test [1] (incubation 48 hours (FIG. 2A), compared with Comparative Example 1, 0-80 μM); “higher” in test [1] (incubation 72 hours (FIG. 2B), compared with Comparative Example 1, 0-80 μM). Moreover, the “mRNA expression of p21” value in test [2] was “increased”. Besides, the “sizes of the cancers in both of the lungs (CT images)” value in test [3] is given as “decreased”. Besides, the “mRNA expression of cyclin E1” value in [4] is reported as “increased”. In addition, in test [5], the “mRNA expression of cyclin A2” value is reported as “decreased”. Moreover, in test [6], the “mRNA expression of caspase-3” value was “increased”. The “cell apoptosis (annexin V compared with PI)” value in test [7] was “increased”. In addition, the “percentage of inhibition of SK-BR-3 cell proliferation” value in test [8] (setting [10]) was “higher”; in test [8] (incubation 48 hours (FIG. 3A), compared with Comparative Example 1, 0-80 μM) it was “higher”; in test [8] (incubation 72 hours (FIG. 3B), compared with Comparative Example 1, 0-80 μM), “higher”. Besides, the “percentage of inhibition of cancer cell metastasis” value in test [9] is recorded as ≥ 90%. Further, the “spreading of the breast cancer cells to the lungs” value in test [9] is given as “inhibited”.
In the case of `O1[As]2O[As]3O[As]1O[As](O2)O3` [Comparative Example 1, tetraarsenic hexoxide], in test [9], the “percentage of inhibition of cancer cell metastasis” value was 50% and the “spreading of the breast cancer cells to the lungs” value is “inhibited”.

The record behind these values is patent US10525079B2, “Pharmaceutical composition for preventing or treating breast cancer including crystalline polymorph of tetraarsenic hexoxide, and method for producing same” (CHEMAS CO., LTD., priority 2016, dated 2020).
